“And” between values parts separate entries of the source, which are not always exact repeats. Identical values can stand only once. Counter-ions that a name gives are not always drawn.
Assays:
[1] = test system: HCT116 cells; assay: Effect of inhibiting cancer cell proliferation (MTT) in HCT116 cells; format: cell-based, human; conditions: for inhibition at 25 µM: read-out: Cell growth inhibition (%) at 25 μM
In short: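 HCT116 colorectal cells (about 5,000 per well, DMEM with 10% FBS) treated with 100, 25, 6.25, 1.56 or 0.39 μM compound for 48 h. MTT added for 3 h, formazan read at 560 nm; GIC50 taken from viability relative to untreated cells.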

[2] = test system: AMPK; assay: AMPK activation effect (AMPK [pT172] ELISA) in MCF7 cells; format: cell-based, human; conditions: 24 hours; for AMPK activation effect (%) 5 μM / AMPK activation effect (%) 10 μM / AMPK activation effect (%) 50 μM: AMPKα Thr172 phosphorylation relative to untreated cells; for AC150: concentration at which AMPK activation reached 150%
In short: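 MCF7 cells in DMEM/10% FBS were treated 24 h with compounds at 5, 10 and 50 uM. Lysates (20 μg protein) were assayed by ELISA for AMPKα Thr172 phosphorylation as the activation read-out.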

[3] = Homo sapiens, HCT-116, 48 h, 25 μM

Molecule | GI50 ([1]; Homo sapiens, HCT-116, 48 h) | inhibition at 25 µM [1, 3] | AMPK activation effect (%) 5 μM [2] | AMPK activation effect (%) 10 μM [2] | AC150 [2] | Cell growth inhibition (%) at 25 μM ([1]; 25 μM, 48 hours, hydrochloride) | GI50 ([1]; 48 hours, hydrochloride) | AMPK activation effect (%) 5 μM ([2]; hydrochloride) | AMPK activation effect (%) 10 μM ([2]; hydrochloride) | AC150 ([2]; hydrochloride) | Cell growth inhibition (%) at 100 μM ([1]; 100 μM, 48 hours) | inhibition at 100 µM ([1]; Homo sapiens, HCT-116, 48 h, 100 μM, read-out: Cell growth inhibition (%) at 100 μM) | AMPK activation effect (%) 50 μM [2] | GI50 ([1]; 48 hours)
CC1CCCCN1C(=N)NC(=N)Nc1ccc(F)c(C(F)(F)F)c1.Cl (stereo not drawn) [Example 78, N1-(2-methyl)piperidine-N5-(4-fluoro, 3-trifluoromethyl)phenyl biguanide hydrochloride] | 7 µM | 100% | 425% | 565% | 0.5 µM |  |  |  |  |  |  |  |  | 
CC1CCCCN1C(=N)NC(=N)Nc1cccc(C(F)(F)F)c1.Cl (stereo not drawn) [Example 79, N1-(2-methyl)piperidine-N5-(3-trifluoromethyl)phenyl biguanide hydrochloride] | 9.4 µM | 98.9% | 177% | 515% | 1.9 µM |  |  |  |  |  |  |  |  | 
CC1CCCCN1C(=N)NC(=N)Nc1ccc(Cl)c(C(F)(F)F)c1.Cl (stereo not drawn) [Example 80, N1-(2-methyl)piperidine-N5-(4-chloro, 3-trifluoromethyl)phenyl biguanide hydrochloride] | 6.8 µM | 99.7% | 334% | 590% | 1.1 µM |  |  |  |  |  |  |  |  | 
CC1CCCN(C(=N)NC(=N)Nc2ccc(C(F)(F)F)cc2)C1.Cl (stereo not drawn) [Example 81, N1-(3-methyl)piperidine-N5-(4-trifluoromethyl)phenyl biguanide hydrochloride] | 7.7 µM | 100% | 224% | 396% | 1.9 µM |  |  |  |  |  |  |  |  | 
CC1CCCN(C(=N)NC(=N)Nc2ccc(OC(F)(F)F)cc2)C1.Cl (stereo not drawn) [Example 82, N1-(3-methyl)piperidine-N5-(4-trifluoromethoxy)phenyl biguanide hydrochloride] | 7 µM | 100% | 401% | 474% | 0.5 µM |  |  |  |  |  |  |  |  | 
CC1CCCN(C(=N)NC(=N)Nc2cccc(OC(F)(F)F)c2)C1.Cl (stereo not drawn) [Example 83, N1-(3-methyl)piperidine-N5-(3-trifluoromethoxy)phenyl biguanide hydrochloride] | 6.8 µM | 100% | 352% | 398% | 0.5 µM |  |  |  |  |  |  |  |  | 
CC1CCCN(C(=N)NC(=N)NCc2ccc(OC(F)(F)F)cc2)C1.Cl (stereo not drawn) [Example 84, N1-(3-methyl)piperidine-N5-(4-trifluoromethoxy)benzyl biguanide hydrochloride] | 10.4 µM | 97% | 317% | 555% | 1.1 µM |  |  |  |  |  |  |  |  | 
CC1CCCN(C(=N)NC(=N)Nc2ccc(F)c(C(F)(F)F)c2)C1.Cl (stereo not drawn) [Example 85, N1-(3-methyl)piperidine-N5-(4-fluoro, 3-trifluoromethyl)phenyl biguanide hydrochloride] |  |  |  |  |  | 100.2% | 7.1 µM | 345% | 436% | 0.7 µM |  |  |  | 
CC1CCCN(C(=N)NC(=N)NCc2ccc(C(F)(F)F)cc2)C1.Cl (stereo not drawn) [Example 86, N1-(3-methyl)piperidine-N5-(4-trifluoromethyl)benzyl biguanide hydrochloride] | 27.6 µM | 49% | 147% | 330% | 2.3 µM |  |  |  |  |  |  |  |  | 
CC1CCCN(C(=N)NC(=N)Nc2ccc(Cl)cc2)C1.Cl (stereo not drawn) [Example 87, N1-(3-methyl)piperidine-N5-(4-chloro)phenyl biguanide hydrochloride] | 10 µM | 100% | 219% | 297% | 1.9 µM |  |  |  |  |  |  |  |  | 
CC1CCCN(C(=N)NC(=N)Nc2cccc(C(F)(F)F)c2)C1.Cl (stereo not drawn) [Example 88, N1-(3-methyl)piperidine-N5-(3-trifluoromethyl)phenyl biguanide hydrochloride] | 6.6 µM | 100% | 327% | 399% | 0.7 µM |  |  |  |  |  |  |  |  | 
CC1CCCC(C)N1C(=N)NC(=N)Nc1ccc(OC(F)(F)F)cc1.Cl (stereo not drawn) [Example 89, N1-(2,6-dimethyl)piperidine-N5-(4-trifluoromethoxy)phenyl biguanide hydrochloride] | 6.2 µM | 100% | 153% | 198% | 4.7 µM |  |  |  |  |  |  |  |  | 
CC1CCCC(C)N1C(=N)NC(=N)Nc1cccc(OC(F)(F)F)c1.Cl (stereo not drawn) [Example 90, N1-(2,6-dimethyl)piperidine-N5-(3-trifluoromethoxy)phenyl biguanide hydrochloride] | 3.2 µM | 100% | 281% | 317% | 0.8 µM |  |  |  |  |  |  |  |  | 
CC1CCCC(C)N1C(=N)NC(=N)Nc1ccc(C(F)(F)F)cc1.Cl (stereo not drawn) [Example 91, N1-(2,6-dimethyl)piperidine-N5-(4-trifluoromethyl)phenyl biguanide hydrochloride] | 11.4 µM | 100% | 108% | 214% | 5.6 µM |  |  |  |  |  |  |  |  | 
CC1CCCC(C)N1C(=N)NC(=N)Nc1cccc(C(F)(F)F)c1.Cl (stereo not drawn) [Example 92, N1-(2,6-dimethyl)piperidine-N5-(3-trifluoromethyl)phenyl biguanide hydrochloride] | 7.5 µM | 100% | 324% | 417% | 0.8 µM |  |  |  |  |  |  |  |  | 
CC1CCCC(C)N1C(=N)NC(=N)Nc1ccc(F)c(C(F)(F)F)c1.Cl (stereo not drawn) [Example 93, N1-(2,6-dimethyl)piperidine-N5-(4-fluoro, 3-trifluoromethyl)phenyl biguanide hydrochloride] | 3 µM | 100% | 190% | 422% | 2.0 µM |  |  |  |  |  |  |  |  | 
CC1CCCC(C)N1C(=N)NC(=N)Nc1ccc(Cl)c(C(F)(F)F)c1.Cl (stereo not drawn) [Example 94, N1-(2,6-dimethyl)piperidine-N5-(4-chloro, 3-trifluoromethyl)phenyl biguanide hydrochloride] | 2.8 µM | 100% | 328% | 643% | 1.1 µM |  |  |  |  |  |  |  |  | 
CC1CCCC(C)N1C(=N)NC(=N)Nc1ccc(OC(F)(F)F)c(F)c1.Cl (stereo not drawn) [Example 95, N1-(2,6-dimethyl)piperidine-N5-(3-fluoro, 4-trifluoromethoxy)phenyl biguanide] | 2.9 µM | 101% | 130% | 326% | 3.1 µM |  |  |  |  |  |  |  |  | 
CC1CCCC(C)N1C(=N)NC(=N)Nc1ccc(Cl)cc1.Cl (stereo not drawn) [Example 96, N1-(2,6-dimethyl)piperidine-N5-(4-chloro)phenyl biguanide hydrochloride] | 10.4 µM | 101% | 240% | 395% | 1.8 µM |  |  |  |  |  |  |  |  | 
CC1CCCC(C)N1C(=N)NC(=N)Nc1ccc(Br)cc1 (stereo not drawn) [Example 97, N1-(2,6-dimethyl)piperidine-N5-(4-bromo)phenyl biguanide hydrochloride] | 9.1 µM | 100% | 143% | 233% | 4.2 µM |  |  |  |  |  |  |  |  | 
CC1CCCC(C)N1C(=N)NC(=N)Nc1ccc(F)cc1.Cl (stereo not drawn) [Example 98, N1-(2,6-dimethyl)piperidine-N5-(4-fluoro)phenyl biguanide hydrochloride] | 45.4 µM | 28.2% | 239% | 244% | 2.8 µM |  |  |  |  |  |  |  |  | 
CN(C)C(=N)N=C(N)N [Metformin, reference compound] | 2170 µM |  |  |  |  |  |  |  |  |  | 6.5 (at 100 μM ) % | 6.5% | 130% and 130 (at 50 μM) % | 
N1-1,2-dihydropyrrole-N5-(4-methyl)phenyl biguanide hydrochloride [Example 50] |  |  |  | 317% | 1.4 µM |  |  |  |  |  | 46.0% |  | 440% | 117 µM

From patent publication US9884821B2, “N1-cyclic amine-N5-substituted biguanide derivatives, methods of preparing the same and pharmaceutical composition comprising the same” (IMMUNOMET THERAPEUTICS INC., priority 2013, dated 2018)
